Experimental data from PMC4867592, “Targeting multiple response regulators of Mycobacterium tuberculosis augments the host immune response to infection” (Scientific Reports, 2016).
Where “and” joins values, the source holds several entries; their conditions need not be identical. Equal entries are not always repeated. Where two headings read alike, the source gives them in different places.

Assays:
Mtb [1] = assay: qRT-PCR / semi-quantitative RT-PCR of Mtb gene expression; type: cell-based, Mycobacterium tuberculosis H37Rv
Mtb [2] = type: cell-based, Mycobacterium tuberculosis H37Rv
Mtb [3] = assay: Alamar Blue assay of Mtb growth in vitro; type: cell-based, Mycobacterium tuberculosis H37Rv
Mtb [4] = assay: Growth curve of Mtb (absorbance at 600 nm); type: cell-based, Mycobacterium tuberculosis H37Rv
Mtb-infected macrophages = assay: Autophagy assays in Mtb-infected macrophages (LC3-II immunoblot, LC3 puncta); type: cell-based; conditions: for LC3 puncta formation in infected macrophages: BMDMs, hMDMs, RAW264.7, C2 20 μM, isoniazid 0.5 µg/ml
Description: For autophagy analysis, infected macrophages were lysed and immunoblotted with LC3 antibody. For the visualisation of LC3 puncta, infected macrophages were incubated with LC3 antibody followed by immunostaining with Alexa 488-conjugated secondary antibody. Images were acquired in a Leica confocal microscope. At least 100 cells were counted to enumerate the number of punctated cells. Detailed methods have been provided in the supplemental section.
(§1) RAW 264.7 cells or hMDMs or BMDMs were seeded at ~3x10^5 cells per well on 18 mm cover slips.
(§2) After infection and treatment with C2 or isoniazid (INH) , the cells were fixed with 4% paraformaldehyde for 10 min at 25°C followed by permeabilisation with 0.01% Triton X-100 in PBS for 10 min at 25°C. The cells were then treated with 10% BSA in PBS for 90 min at 25°C followed by treatment with anti-LC3 antibody at 4°C overnight. Cells were then washed with PBS and treated with Alexa488 conjugated secondary antibody for 90 min at 25°C. Cells were visualized in a Leica confocal […]
(§3) Bacterial CFU determinations
RAW264.7 cells or hMDMs or BMDMs were plated in 48 well plates. Cells were infected with Mtb and treated with C2 or C6 for the desired periods of time. Infected cells were lysed in distilled water with 0.06% SDS. Serial dilutions of homogenates were plated on 7H11 agar plates supplemented with 10% OADC and incubated at 37 °C for 3–4 weeks. CFUs were calculated in triplicate using standard procedures. For Alamar Blue assays, bacteria from the cell lysates were washed and transferred to a 96 well plate in MB 7H9. Alamar Blue was added and readings were taken upon development of […]
For NO (nitrite) measurements, RAW264.7 or MDMs or BMDMs were infected with Mtb H37Rv. Control and infected supernatants obtained in the absence or presence of C2, were used for the measurement of nitrite using Griess reagent (Invitrogen), according to the manufacturer’s instructions. Supernatant nitrite concentrations were measured by reading absorbance at 540 nm and calculated using a standard curve. […]

MprA = target: T1, MprA (Mycobacterium tuberculosis, UniProt P9WGM9); assay: EMSA: binding of phosphorylated MprA to mprA promoter DNA; parameters: species or system Mtb
T1 construct: His (N); made in house; host or cells: E. coli BL21(DE3)
T1 sequence (P9WGM9 1-230): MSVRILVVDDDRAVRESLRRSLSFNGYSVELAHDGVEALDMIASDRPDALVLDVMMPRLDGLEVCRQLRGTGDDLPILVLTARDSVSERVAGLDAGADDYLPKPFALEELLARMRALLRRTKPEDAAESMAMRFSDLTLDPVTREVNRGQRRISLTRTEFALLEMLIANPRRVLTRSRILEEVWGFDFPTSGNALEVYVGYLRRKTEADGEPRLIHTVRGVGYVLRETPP

RegX3 = target: T2, RegX3 (Mycobacterium tuberculosis, UniProt P9WGL9); assay: EMSA: binding of phosphorylated RegX3 to ppk1 promoter DNA; parameters: species or system Mtb
T2 construct: made in house; host or cells: E. coli
T2 sequence (P9WGL9 1-227): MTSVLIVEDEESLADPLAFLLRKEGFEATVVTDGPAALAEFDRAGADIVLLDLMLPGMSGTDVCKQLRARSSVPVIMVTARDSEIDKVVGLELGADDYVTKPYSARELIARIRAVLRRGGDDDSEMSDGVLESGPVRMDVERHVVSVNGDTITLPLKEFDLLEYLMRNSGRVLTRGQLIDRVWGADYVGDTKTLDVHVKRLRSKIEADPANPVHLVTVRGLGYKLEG

MtrA = target: T3, MtrA (Mycobacterium tuberculosis, UniProt P9WGM7); assay: EMSA: binding of phosphorylated MtrA to fbpB promoter DNA; parameters: species or system Mtb
T3 construct: Full length MtrA/Rv3246c excluding the stop codon; His (C); made in house; host or cells: E. coli C41(DE3)
T3 sequence (P9WGM7 1-228): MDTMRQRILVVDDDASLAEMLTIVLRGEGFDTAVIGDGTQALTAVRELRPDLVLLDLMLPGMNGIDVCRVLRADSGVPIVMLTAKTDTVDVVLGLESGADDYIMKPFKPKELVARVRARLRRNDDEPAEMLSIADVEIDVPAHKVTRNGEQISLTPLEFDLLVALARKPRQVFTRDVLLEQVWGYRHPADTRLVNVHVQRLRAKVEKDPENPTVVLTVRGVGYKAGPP

Mtb Erdman = type: cell-based, Mycobacterium tuberculosis Erdman; conditions: immunoblot
Mtb in hMDM = assay: Mtb CFU in infected human monocyte derived macrophages; type: cell-based, Mycobacterium tuberculosis H37Rv; conditions: MOI 5, 20 μM, after 6 days
[5] = test system: NO release from macrophages; assay: NO (nitrite) release from macrophages, Griess reagent; type: cell-based
Description: For NO (nitrite) measurements, RAW264.7 was infected with Mtb in DMEM for 24–48 h. Nitrite was measured using Griess reagent (Invitrogen), according to the manufacturer’s instructions. Absorbance was read at 540 nm in an ELISA reader and the concentrations of nitrite were calculated against a standard curve.
as §1, §2, §3
RAW264.7 cells or hMDMs or BMDMs were plated in 48 well plates. Cells were infected with Mtb and treated with C2 or C6 for the desired periods of time. […] CFUs were calculated in triplicate using standard procedures. […] Alamar Blue was added and readings were taken upon development of […]
For NO (nitrite) measurements, RAW264.7 or MDMs or BMDMs were infected with Mtb H37Rv. […] Supernatant nitrite concentrations were measured by reading absorbance at 540 nm and calculated using a standard curve. […]

Mtb in BMDM = assay: Mtb CFU in infected murine bone marrow derived macrophages; type: cell-based, Mycobacterium tuberculosis H37Rv; conditions: MOI 5, 20 μM, after 6 days
DosR = target: T4, DosR (Mycobacterium tuberculosis, UniProt P9WMF9); assay: EMSA: binding of phosphorylated DosR (DevR) to hspX promoter-derived DNA; parameters: species or system Mtb
T4 construct: His6; made in house; host or cells: E. coli C43(DE3)

RAW264.7 = assay: Survival of RAW264.7 measured by Alamar Blue

T4 sequence (P9WMF9 whole entry): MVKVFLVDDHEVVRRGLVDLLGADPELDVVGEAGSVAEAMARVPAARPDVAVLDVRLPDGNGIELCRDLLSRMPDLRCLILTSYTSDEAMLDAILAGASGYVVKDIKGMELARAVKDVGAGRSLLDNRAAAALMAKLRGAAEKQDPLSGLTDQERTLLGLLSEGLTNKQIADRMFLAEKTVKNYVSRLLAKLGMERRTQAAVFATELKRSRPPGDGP

Compound: 2-iminothiazolidine-4-one [Compound 2]
- Expression of activated targets sigB, sigE, Rv0081, ftsI, dnaN, pstS3 (Mtb [1]; 20 µM): repressed
- Expression of repressible targets rpfB, gltA1, cydA (Mtb [1]; 20 µM): augmented
- esxA expression (Mtb [1]; 20 µM): lowered
- Expression of espA and espR (Mtb [1]; 20 µM, 48 hours of treatment): reduced
- Expression of mtrA, regX3 and mprA (Mtb [1]; exposure for 48 h): inhibited
- Retention of pBP10 by Mtb (Mtb [2]): higher levels of retention of pBP10
- In vitro IC50 against Mtb (Mtb [3]): 6 µg/mL
- In vitro MIC against Mtb (Mtb [3]): 17 μg/ml and 25 μM
- In vitro IC50 against Mtb (Mtb [3]; listed as C2): ~ 6 μg/ml
- IC50 (Mtb [3]; read-out: In vitro IC50 against Mtb): 9 µM
- Growth curve of Mtb (Mtb [4]): levelled off earlier
- LC3 puncta formation in infected macrophages (Mtb-infected macrophages): enhanced
- Conversion of LC3-I to LC3-II (Mtb-infected macrophages; Mtb infected RAW 264.7, immunoblot): enhanced
- Inhibition of binding ability of MprA (MprA): inhibited
- IC50 (MprA; densitometry, read-out: IC50, inhibition of MprA binding to mprA promoter): 4 µM
- Inhibition of binding ability of RegX3 (RegX3): inhibited the binding ability of RegX3
- IC50 (RegX3; densitometry, read-out: IC50, inhibition of RegX3 binding to ppk1 promoter): 18 µM
- Inhibition of DNA binding activity of MtrA (MtrA): could inhibit DNA binding activity of MtrA
- IC50 (MtrA; densitometry, read-out: IC50, inhibition of MtrA binding to fbpB promoter): 21 µM
- ESAT-6 in the culture filtrate (Mtb Erdman): reduced amounts of ESAT-6
- Decrease in CFU of Mtb in MDMs (Mtb in hMDM): ~ 8 fold
- NO release from infected macrophages ([5]; Mtb-infected BMDMs, hMDMs, RAW264.7, 20 μM): significantly higher
- NO release from uninfected macrophages ([5]; compound alone, data not shown): did not affect NO release
- Decrease in CFU of Mtb in BMDMs (Mtb in BMDM): ~ 8 fold
- Inhibition of DosR binding to hspX promoter-derived DNA fragment (DosR): did not inhibit binding of DosR
- Viability of RAW264.7 (RAW264.7): did not affect the viability

Compound: NNC(=O)c1ccncc1 [INH, isoniazid, reference compound]
- LC3 puncta formation in infected macrophages (Mtb-infected macrophages): enhanced
